In PubChem BioAssay AID1963435 (Molecular Pharmacology Branch, DTP, NCI, 2024):
Each block holds one molecule with its values, some of them ahead of it.

Tested on: PANC-1 complex spheroid growth, percent test/control
Experiment: Anticancer human tumor PANC-1 cell line growth inhibition [Asc];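 note: spheroids exposed to agents for 7 days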;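 for viability, T/C: percent viability relative to DMSO vehicle wells taken as 100%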
Conditions: for IC50: curve of first compound; for viability, T/C: stronger effect = lower value
How it was run: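 Tumor cells were grown as complex spheroids with human endothelial cells (HUVEC) and human mesenchymal stem cells as stroma. Agents were tested alone and in combination, in half-log steps down from the clinical Cmax, or from 10 microM where Cmax was unknown.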

[1] = second compound 0.0316 µM, first compound 0.00949 µM
[2] = second compound 0.0316 µM, first compound 0.03 µM
[3] = second compound 0.0316 µM, first compound 0.0949 µM
[4] = second compound 0.0316 µM, first compound 0.3 µM
[5] = second compound 0.1 µM, first compound 0.00949 µM
[6] = second compound 0.1 µM, first compound 0.03 µM
[7] = second compound 0.1 µM, first compound 0.0949 µM
[8] = second compound 0.1 µM, first compound 0.3 µM
[9] = second compound 0.316 µM, first compound 0.00949 µM
[10] = second compound 0.316 µM, first compound 0.03 µM
[11] = second compound 0.316 µM, first compound 0.0949 µM
[12] = second compound 0.316 µM, first compound 0.3 µM
[13] = second compound 1 µM, first compound 0.00949 µM
[14] = second compound 1 µM, first compound 0.03 µM
[15] = second compound 1 µM, first compound 0.0949 µM
[16] = second compound 1 µM, first compound 0.3 µM

IC50 (second compound 0.00949 µM): > 1000 nM
IC50 (second compound 0.03 µM): > 1000 nM
IC50 (second compound 0.0949 µM): > 1000 nM
IC50 (second compound 0.3 µM): > 1000 nM
IC50 (second compound 0.949 µM): > 1000 nM
IC50 (second compound 3 µM): > 1000 nM
SMILES: CCN1CCN(Cc2ccc(Nc3ncc(F)c(-c4cc(F)c5nc(C)n(C(C)C)c5c4)n3)nc2)CC1 + CCN1C(C(=O)NC23CCC(C(=O)O)(CC2)CC3)C(c2cccc(Cl)c2F)C2(C(=O)Nc3cc(Cl)ccc32)C12CCCCC2
viability, T/C (second compound 0.00949 µM, first compound 0.00316 µM): 112%
viability, T/C (second compound 0.00949 µM, first compound 0.01 µM): 102%
viability, T/C (second compound 0.00949 µM, first compound 0.0316 µM): 109%
viability, T/C (second compound 0.00949 µM, first compound 0.1 µM): 117%
viability, T/C (second compound 0.00949 µM, first compound 0.316 µM): 126%
viability, T/C (second compound 0.00949 µM, first compound 1 µM): 139%
viability, T/C (second compound 0.03 µM, first compound 0.00316 µM): 105%
viability, T/C (second compound 0.03 µM, first compound 0.01 µM): 97.8%
viability, T/C (second compound 0.03 µM, first compound 0.0316 µM): 114%
viability, T/C (second compound 0.03 µM, first compound 0.1 µM): 114%
viability, T/C (second compound 0.03 µM, first compound 0.316 µM): 131%
viability, T/C (second compound 0.03 µM, first compound 1 µM): 141%
viability, T/C (second compound 0.0949 µM, first compound 0.00316 µM): 108%
viability, T/C (second compound 0.0949 µM, first compound 0.01 µM): 108%
viability, T/C (second compound 0.0949 µM, first compound 0.0316 µM): 105%
viability, T/C (second compound 0.0949 µM, first compound 0.1 µM): 105%
viability, T/C (second compound 0.0949 µM, first compound 0.316 µM): 125%
viability, T/C (second compound 0.0949 µM, first compound 1 µM): 140%
viability, T/C (second compound 0.3 µM, first compound 0.00316 µM): 99.8%
viability, T/C (second compound 0.3 µM, first compound 0.01 µM): 131%
viability, T/C (second compound 0.3 µM, first compound 0.0316 µM): 110%
viability, T/C (second compound 0.3 µM, first compound 0.1 µM): 117%
viability, T/C (second compound 0.3 µM, first compound 0.316 µM): 124%
viability, T/C (second compound 0.3 µM, first compound 1 µM): 150%
viability, T/C (second compound 0.949 µM, first compound 0.00316 µM): 102%
viability, T/C (second compound 0.949 µM, first compound 0.01 µM): 119%
viability, T/C (second compound 0.949 µM, first compound 0.0316 µM): 121%
viability, T/C (second compound 0.949 µM, first compound 0.1 µM): 111%
viability, T/C (second compound 0.949 µM, first compound 0.316 µM): 128%
viability, T/C (second compound 0.949 µM, first compound 1 µM): 140%
viability, T/C (second compound 3 µM, first compound 0.00316 µM): 116%
viability, T/C (second compound 3 µM, first compound 0.01 µM): 125%
viability, T/C (second compound 3 µM, first compound 0.0316 µM): 118%
viability, T/C (second compound 3 µM, first compound 0.1 µM): 124%
viability, T/C (second compound 3 µM, first compound 0.316 µM): 131%
viability, T/C (second compound 3 µM, first compound 1 µM): 157%

IC50 (second compound 0.0316 µM): > 3000 nM
IC50 (second compound 0.1 µM): > 3000 nM
IC50 (second compound 0.316 µM): > 3000 nM
IC50 (second compound 1 µM): > 3000 nM
IC50 (second compound 3.16 µM): > 3000 nM
IC50 (second compound 10 µM): > 3000 nM
SMILES: CCN1C(C(=O)NC23CCC(C(=O)O)(CC2)CC3)C(c2cccc(Cl)c2F)C2(C(=O)Nc3cc(Cl)ccc32)C12CCCCC2 (stereo unspecified) + Cc1c(S(C)(=O)=O)c(-c2cc(F)cc(N3CCN(c4ccc(NS(=O)(=O)c5ccc(NC(CCN6CCC(C(=O)OCCCP(=O)(O)O)CC6)CSc6ccccc6)c(S(=O)(=O)C(F)(F)F)c5)cc4)CC3)c2)c(-c2ccc(Cl)cc2)n1C(C)C
viability, T/C [1]: 99.1%
viability, T/C [2]: 103%
viability, T/C [3]: 93.7%
viability, T/C [4]: 110%
viability, T/C (second compound 0.0316 µM, first compound 0.949 µM): 109%
viability, T/C (second compound 0.0316 µM, first compound 3 µM): 114%
viability, T/C [5]: 101%
viability, T/C [6]: 108%
viability, T/C [7]: 106%
viability, T/C [8]: 96.8%
viability, T/C (second compound 0.1 µM, first compound 0.949 µM): 124%
viability, T/C (second compound 0.1 µM, first compound 3 µM): 123%
viability, T/C [9]: 99.8%
viability, T/C [10]: 96.3%
viability, T/C [11]: 105%
viability, T/C [12]: 103%
viability, T/C (second compound 0.316 µM, first compound 0.949 µM): 117%
viability, T/C (second compound 0.316 µM, first compound 3 µM): 109%
viability, T/C [13]: 124%
viability, T/C [14]: 107%
viability, T/C [15]: 106%
viability, T/C [16]: 107%
viability, T/C (second compound 1 µM, first compound 0.949 µM): 118%
viability, T/C (second compound 1 µM, first compound 3 µM): 115%
viability, T/C (second compound 3.16 µM, first compound 0.00949 µM): 115%
viability, T/C (second compound 3.16 µM, first compound 0.03 µM): 102%
viability, T/C (second compound 3.16 µM, first compound 0.0949 µM): 111%
viability, T/C (second compound 3.16 µM, first compound 0.3 µM): 116%
viability, T/C (second compound 3.16 µM, first compound 0.949 µM): 118%
viability, T/C (second compound 3.16 µM, first compound 3 µM): 123%
viability, T/C (second compound 10 µM, first compound 0.00949 µM): 179%
viability, T/C (second compound 10 µM, first compound 0.03 µM): 189%
viability, T/C (second compound 10 µM, first compound 0.0949 µM): 184%
viability, T/C (second compound 10 µM, first compound 0.3 µM): 186%
viability, T/C (second compound 10 µM, first compound 0.949 µM): 172%
viability, T/C (second compound 10 µM, first compound 3 µM): 155%

IC50 (second compound 0.00316 µM): > 300 nM
IC50 (second compound 0.01 µM): > 300 nM
IC50 (second compound 0.0316 µM): > 300 nM
IC50 (second compound 0.1 µM): > 300 nM
IC50 (second compound 0.316 µM): > 300 nM
IC50 (second compound 1 µM): > 300 nM
SMILES: NC(=O)C(=Cn1cnc(-c2cc(C(F)(F)F)cc(C(F)(F)F)c2)n1)c1cncnc1 + CNC(C)C(=O)NC1CN(S(=O)(=O)c2cccc(S(=O)(=O)N3CCC4CCC(C(=O)NC(c5ccccc5)c5ccccc5)N4C(=O)C(NC(=O)C(C)NC)C3)c2)CCC2CCC(C(=O)NC(c3ccccc3)c3ccccc3)N2C1=O
viability, T/C (second compound 0.00316 µM, first compound 0.000949 µM): 103%
viability, T/C (second compound 0.00316 µM, first compound 0.003 µM): 80.5%
viability, T/C (second compound 0.00316 µM, first compound 0.00949 µM): 90.2%
viability, T/C (second compound 0.00316 µM, first compound 0.03 µM): 91.6%
viability, T/C (second compound 0.00316 µM, first compound 0.0949 µM): 102%
viability, T/C (second compound 0.00316 µM, first compound 0.3 µM): 95.3%
viability, T/C (second compound 0.01 µM, first compound 0.000949 µM): 87%
viability, T/C (second compound 0.01 µM, first compound 0.003 µM): 89.9%
viability, T/C (second compound 0.01 µM, first compound 0.00949 µM): 89.3%
viability, T/C (second compound 0.01 µM, first compound 0.03 µM): 87.6%
viability, T/C (second compound 0.01 µM, first compound 0.0949 µM): 95.3%
viability, T/C (second compound 0.01 µM, first compound 0.3 µM): 85.2%
viability, T/C (second compound 0.0316 µM, first compound 0.000949 µM): 82%
viability, T/C (second compound 0.0316 µM, first compound 0.003 µM): 91.4%
viability, T/C [1]: 83.3%
viability, T/C [2]: 81%
viability, T/C [3]: 90.5%
viability, T/C [4]: 78.3%
viability, T/C (second compound 0.1 µM, first compound 0.000949 µM): 84%
viability, T/C (second compound 0.1 µM, first compound 0.003 µM): 83.1%
viability, T/C [5]: 79.9%
viability, T/C [6]: 91.3%
viability, T/C [7]: 102%
viability, T/C [8]: 80.5%
viability, T/C (second compound 0.316 µM, first compound 0.000949 µM): 89.2%
viability, T/C (second compound 0.316 µM, first compound 0.003 µM): 78%
viability, T/C [9]: 79.2%
viability, T/C [10]: 81.5%
viability, T/C [11]: 103%
viability, T/C [12]: 71.9%
viability, T/C (second compound 1 µM, first compound 0.000949 µM): 78.3%
viability, T/C (second compound 1 µM, first compound 0.003 µM): 90.7%
viability, T/C [13]: 79.7%
viability, T/C [14]: 85.3%
viability, T/C [15]: 88.8%
viability, T/C [16]: 66.7%
